Reference: patent US20230233576A1, “ECLITASERTIB FOR USE IN TREATING CONDITIONS INVOLVING SYSTEMIC HYPERINFLAMMATORY RESPONSE” (priority 2020, published 2023)

Tests used:
[1] = tested on: peripheral cytokine and biomarker levels; assay: Phase 1b severe COVID-19 study: peripheral cytokine and biomarker levels; format: in vivo, human
Text: The biomarker variables included pro-inflammatory cytokines (such as IL 4, IL-6, IL-10, IL-17, TNFα, and IFNγ) and RIPK1 PD cytokines/chemokines (such as MIP1α and MIP1β) that are elevated in participants with SARS-CoV-2.
The exploratory PD/biomarker endpoint was the change from baseline in peripheral cytokine and biomarker levels up to EOT.
Each analyte was selected, and the assay analytically validated based on reports in the literature and in-house research.

[2] = tested on: adult participants hospitalized for severe COVID-19; assay: Phase 1b severe COVID-19 study: clinical laboratory abnormalities (PCSA); format: in vivo, human; settings: TEAE period
Experimental: Standard clinical laboratory parameters (hematology, blood chemistry) were measured per protocol.
For laboratory parameters (hematology, clinical chemistry, and urinalysis), vital signs, and ECG, incidences of potentially clinically significant abnormality (PCSA) values, actual values and change from baseline were summarized by treatment group.
For all laboratory, vital signs and ECG parameters, raw data and change from baseline were summarized in descriptive statistics by treatment group and scheduled time of measurement, with the exception of AST, ALT and alkaline phosphatase: instead of summarizing data in descriptive statistics, participants' profiles were presented through graphics by treatment group and with a color code to identify sites. The reason was that blood samples were processed by local laboratories with different normal ranges. For the rest of clinical laboratory these parameters it is reasonable to pool data as they are standard procedure and no significant differences in normal ranges were expected.

[3] = 600 mg, Day 7, LOCF, Safety population
[4] = 600 mg, Day 7, not statistically significant
[5] = Day 7 vs baseline, LOCF, Safety population
[6] = abnormal baseline (LLN/ULN or PCSA), 600 mg (N = 47), safety population
[7] = all baseline values counted in one unique group (as normal), 600 mg (N = 47), safety population
[8] = missing baseline, 600 mg (N = 47), safety population
[9] = normal baseline, 600 mg (N = 47), safety population

## CN1C(=O)[C@@H](NC(=O)c2nnc(Cc3ccccc3)[nH]2)COc2cccnc21 [RIPK1 Inhibitor, (S)-5-benzyl-N-(5-methyl-4-oxo-2,3,4,5-tetrahydropyrido[3,2-b][1,4]oxazepin-3-yl)-4H-1,2,4-triazole-3-carboxamide]
[1]; [3]
  IL-6 fold change from baseline: 0.4
  IL-10 fold change from baseline: 0.48
  chemokine (C-X-C motif) Ligand 10 fold change from baseline: 0.26
  interferon gamma fold change from baseline: 0.44
[1]; [4]
  IL-6, ratio of relatives changes (RIPK1 Inhibitor versus placebo): 0.63
  IL-10, ratio of relatives changes (RIPK1 Inhibitor versus placebo): 0.82
  chemokine (C-X-C Motif) Ligand 10, ratio of relatives changes (RIPK1 Inhibitor versus placebo): 0.7
  monocyte chemotactic protein 1, ratio of fold changes between RIPK1 Inhibitor and placebo: 0.85
[1]; Day 7, LOCF, Safety population
  Chemokine (C-C Motif) Ligand 13 (pg/mL): RIPK1 Inhibitor 600 mg vs Placebo Fold-Change: 1.15 (60)
  Chemokine (C-X-C Motif) Ligand 10 (pg/mL): RIPK1 Inhibitor 600 mg vs Placebo Fold-Change: 0.7 (56)
  Eotaxin-1 (pg/mL): RIPK1 Inhibitor 600 mg vs Placebo Fold-Change: 1.03 (65)
  Interferon Gamma (pg/mL): RIPK1 Inhibitor 600 mg vs Placebo Fold-Change: 1.03 (66)
  Interleukin 6 (pg/mL): RIPK1 Inhibitor 600 mg vs Placebo Fold-Change: 0.63 (66)
  Interleukin 8 - Cytokines (pg/mL): RIPK1 Inhibitor 600 mg vs Placebo Fold-Change: 0.8 (66)
  Interleukin 10 (pg/mL): RIPK1 Inhibitor 600 mg vs Placebo Fold-Change: 0.82 (66)
  Macrophage Inflammatory Protein 1 Beta (pg/mL): RIPK1 Inhibitor 600 mg vs Placebo Fold-Change: 0.85 (60)
  Macrophage-Derived Chemokine (pg/mL): RIPK1 Inhibitor 600 mg vs Placebo Fold-Change: 1.2 (60)
  Monocyte Chemotactic Protein 1 (pg/mL): RIPK1 Inhibitor 600 mg vs Placebo Fold-Change: 0.85 (60)
  Ratio of Interleukin 6 and Interleukin 10 (RATIO): RIPK1 Inhibitor 600 mg vs Placebo Fold-Change: 0.86 (66)
  Tumor Necrosis Factor alpha (pg/mL): RIPK1 Inhibitor 600 mg vs Placebo Fold-Change: 0.98 (66)
  okine (C-C Motif) Ligand 17: RIPK1 Inhibitor 600 mg vs Placebo Fold-Change: 1 (60)
[1]; [5]
  Chemokine (C-C Motif) Ligand 13 (pg/mL): RIPK1 Inhibitor 600 mg Fold-Change: 1.31 (41)
  Chemokine (C-X-C Motif) Ligand 10 (pg/mL): RIPK1 Inhibitor 600 mg Fold-Change: 0.26 (37)
  Eotaxin-1 (pg/mL): RIPK1 Inhibitor 600 mg Fold-Change: 1.21 (45)
  Interferon Gamma (pg/mL): RIPK1 Inhibitor 600 mg Fold-Change: 0.44 (47)
  Interleukin 6 (pg/mL): RIPK1 Inhibitor 600 mg Fold-Change: 0.4 (47)
  Interleukin 8 - Cytokines (pg/mL): RIPK1 Inhibitor 600 mg Fold-Change: 0.71 (47)
  Interleukin 10 (pg/mL): RIPK1 Inhibitor 600 mg Fold-Change: 0.48 (47)
  Macrophage Inflammatory Protein 1 Beta (pg/mL): RIPK1 Inhibitor 600 mg Fold-Change: 1.07 (41)
  Macrophage-Derived Chemokine (pg/mL): RIPK1 Inhibitor 600 mg Fold-Change: 1.05 (41)
  Monocyte Chemotactic Protein 1 (pg/mL): RIPK1 Inhibitor 600 mg Fold-Change: 0.69 (41)
  Ratio of Interleukin 6 and Interleukin 10 (RATIO): RIPK1 Inhibitor 600 mg Fold-Change: 0.87 (47)
  Tumor Necrosis Factor alpha (pg/mL): RIPK1 Inhibitor 600 mg Fold-Change: 0.85 (47)
  okine (C-C Motif) Ligand 17: RIPK1 Inhibitor 600 mg Fold-Change: 1.56 (41)
[2]; 600 mg
  participants with ALT>3 ULN: 9 participants
  participants with ALT>5 ULN: 1 participants
  participants with AST>5 ULN: 1 participants
  participants with PCSAs of AST>3 ULN: 2 participants
  participants with alkaline phosphatase>1.5 ULN: 2 participants
  participants with total bilirubin>1.5 ULN: One
[2]; [6]
  PCSA Alanine Aminotransferase (ALT) >3 ULN: 7/20
  PCSA Alanine Aminotransferase (ALT) >5 ULN: 0/20
  PCSA Alanine Aminotransferase (ALT) >10 ULN: 0/20
  PCSA Alanine Aminotransferase (ALT) >20 ULN: 0/20
  PCSA Albumin ≤25 g/L: 0/28
  PCSA Alkaline Phosphatase >1.5 ULN: 0/0
  PCSA Aspartate Aminotransferase (AST) >3 ULN: 1/24
  PCSA Aspartate Aminotransferase (AST) >5 ULN: 0/24
  PCSA Aspartate Aminotransferase (AST) >10 ULN: 0/24
  PCSA Basophils >0.1 * 10^9/L: 0/0
  PCSA C-Reactive Protein >2 ULN or >10 mg/L (if ULN not provided): 42/46
  PCSA Conjugated bilirubin >35% Bilirubin and Bilirubin >1.5 ULN: 0/0
  PCSA Creatinine Clearance (CG) <15 mL/min (end stage renal disease): 0/18
  PCSA Creatinine Clearance (CG) ≥15-<30 mL/min (severe decrease in GFR): 0/18
  PCSA Creatinine Clearance (CG) ≥30-<60 mL/min (moderate decrease in GFR): 4/18
  PCSA Creatinine Clearance (CG) ≥60-<90 mL/min (mild decrease in GFR): 11/18
  PCSA Creatinine ≥150 μmol/L (Adults): 1/8
  PCSA Eosinophils >0.5 * 10^9/L or >ULN (if ULN ≥ 0.5 * 10^9/L): 0/9
  PCSA Erythrocyte Count (RBC) ≥6 * 10^12/L: 1/17
  PCSA Glucose ≤3.9 mmol/L and <LLN: 1/33
  PCSA Glucose ≥11.1 mmol/L (unfasted); ≥7 mmol/L (fasted): 18/33
  PCSA Hematocrit ≤0.37 v/v (Male); ≤0.32 v/v (Female): 11/17
  PCSA Hematocrit ≥0.55 v/v (Male); ≥0.5 v/v (Female): 0/17
  PCSA Hemoglobin ≤115 g/L (Male); ≤95 g/L (Female): 4/18
  PCSA Hemoglobin ≥185 g/L (Male); ≥165 g/L (Female): 0/18
  PCSA Lymphocytes >4 * 10^9/L: 2/11
  PCSA Monocytes >0.7 * 10^9/L: 6/10
  PCSA Neutrophils <1.5 * 10^9/L (Non-Black); <1 * 10^9/L (Black): 0/8
  PCSA Platelet Count <100 * 10^9/L: 1/11
  PCSA Platelet Count ≥700 * 10^9/L: 1/11
  PCSA Potassium <3 mmol/L: 0/7
  PCSA Potassium ≥5.5 mmol/L: 1/7
  PCSA Sodium ≤129 mmol/L: 0/8
  PCSA Sodium ≥160 mmol/L: 0/8
  PCSA Total Bilirubin >1.5 ULN: 0/2
  PCSA Total Bilirubin >2 ULN: 0/2
  PCSA White blood cell count <3 * 10^9/L (Non-Black); <2 * 10^9/L (Black): 0/10
  PCSA White blood cell count ≥16 * 10^9/L: 1/10
[2]; [7]
  PCSA Creatinine ≥30% change from baseline: 3/47
  PCSA Creatinine ≥100% change from baseline: 0/47
  PCSA Hemoglobin Decrease from baseline ≥20 g/L: 4/47
[2]; [8]
  PCSA Alanine Aminotransferase (ALT) >3 ULN: 0/0
  PCSA Alanine Aminotransferase (ALT) >5 ULN: 0/0
  PCSA Alanine Aminotransferase (ALT) >10 ULN: 0/0
  PCSA Alanine Aminotransferase (ALT) >20 ULN: 0/0
  PCSA Albumin ≤25 g/L: 0/0
  PCSA Alkaline Phosphatase >1.5 ULN: 0/0
  PCSA Aspartate Aminotransferase (AST) >3 ULN: 0/0
  PCSA Aspartate Aminotransferase (AST) >5 ULN: 0/0
  PCSA Aspartate Aminotransferase (AST) >10 ULN: 0/0
  PCSA C-Reactive Protein >2 ULN or >10 mg/L (if ULN not provided): 0/0
  PCSA Conjugated bilirubin >35% Bilirubin and Bilirubin >1.5 ULN: 0/1
  PCSA Glucose ≤3.9 mmol/L and <LLN: 0/3
  PCSA Glucose ≥11.1 mmol/L (unfasted); ≥7 mmol/L (fasted): 3/3
  PCSA Total Bilirubin >1.5 ULN: 0/0
  PCSA Total Bilirubin >2 ULN: 0/0
[2]; [9]
  PCSA Alanine Aminotransferase (ALT) >3 ULN: 2/27
  PCSA Alanine Aminotransferase (ALT) >5 ULN: 1/27
  PCSA Alanine Aminotransferase (ALT) >10 ULN: 0/27
  PCSA Alanine Aminotransferase (ALT) >20 ULN: 0/27
  PCSA Albumin ≤25 g/L: 0/18
  PCSA Alkaline Phosphatase >1.5 ULN: 2/46
  PCSA Aspartate Aminotransferase (AST) >3 ULN: 1/23
  PCSA Aspartate Aminotransferase (AST) >5 ULN: 1/23
  PCSA Aspartate Aminotransferase (AST) >10 ULN: 0/23
  PCSA Basophils >0.1 * 10^9/L: 3/29
  PCSA C-Reactive Protein >2 ULN or >10 mg/L (if ULN not provided): 0/1
  PCSA Conjugated bilirubin >35% Bilirubin and Bilirubin >1.5 ULN: 0/46
  PCSA Creatinine Clearance (CG) <15 mL/min (end stage renal disease): 0/29
  PCSA Creatinine Clearance (CG) ≥15-<30 mL/min (severe decrease in GFR): 0/29
  PCSA Creatinine Clearance (CG) ≥30-<60 mL/min (moderate decrease in GFR): 0/29
  PCSA Creatinine Clearance (CG) ≥60-<90 mL/min (mild decrease in GFR): 5/29
  PCSA Creatinine ≥150 μmol/L (Adults): 0/39
  PCSA Eosinophils >0.5 * 10^9/L or >ULN (if ULN ≥ 0.5 * 10^9/L): 1/20
  PCSA Erythrocyte Count (RBC) ≥6 * 10^12/L: 0/30
  PCSA Glucose ≤3.9 mmol/L and <LLN: 1/10
  PCSA Glucose ≥11.1 mmol/L (unfasted); ≥7 mmol/L (fasted): 5/10
  PCSA Hematocrit ≤0.37 v/v (Male); ≤0.32 v/v (Female): 4/30
  PCSA Hematocrit ≥0.55 v/v (Male); ≥0.5 v/v (Female): 0/30
  PCSA Hemoglobin ≤115 g/L (Male); ≤95 g/L (Female): 1/29
  PCSA Hemoglobin ≥185 g/L (Male); ≥165 g/L (Female): 0/29
  PCSA Lymphocytes >4 * 10^9/L: 3/18
  PCSA Monocytes >0.7 * 10^9/L: 12/19
  PCSA Neutrophils <1.5 * 10^9/L (Non-Black); <1 * 10^9/L (Black): 2/21
  PCSA Platelet Count <100 * 10^9/L: 0/36
  PCSA Platelet Count ≥700 * 10^9/L: 0/36
  PCSA Potassium <3 mmol/L: 0/40
  PCSA Potassium ≥5.5 mmol/L: 4/40
  PCSA Sodium ≤129 mmol/L: 1/39
  PCSA Sodium ≥160 mmol/L: 0/39
  PCSA Total Bilirubin >1.5 ULN: 1/45
  PCSA Total Bilirubin >2 ULN: 0/45
  PCSA White blood cell count <3 * 10^9/L (Non-Black); <2 * 10^9/L (Black): 1/37
  PCSA White blood cell count ≥16 * 10^9/L: 2/37
